The source of these data is patent publication US3966951A, “Esters of quinoxaline-1,4-dioxides” (Pfizer Inc., priority 1975, dated 1976).

Bounds are passed on as bounds.

Among the test systems are Past. mult 59A004; Past. mult 59A006; Strep. pyogen 02C203; E. Coli 51A-266; Aer. hydro 72B001; Strep. equi 021001; Staph. aureus 01A106; Sal. typhim 58D011; Sal. dublin 58U001; Staph. aureus 01A005; Strep. zoo 02-H001; E. Coli 51A-218; Sal. cholsu 58B242.
Test in all cases: in vitro MIC, Inocula Replicating Device, anaerobic Gas Pac, BHI agar
Common to all, as to format: cell-based
Common to all, as to conditions: unit assumed

Regarding `O=C(CCc1ccc(O)cc1)OCc1c[n+]([O-])c2ccccc2[n+]1[O-]` [Compound 8], the Primary in vitro Activity (MIC) with Past. mult 59A004 is < 100 µg/mL; in the assay with Past. mult 59A006, 50 µg/mL; with Strep. pyogen 02C203 it was 6.25 µg/mL; with E. Coli 51A-266, 100 µg/mL; with Aer. hydro 72B001, 6.25 µg/mL; with Strep. equi 021001, 6.25 µg/mL. Moreover, the Primary in vitro Activity (MIC) with Staph. aureus 01A106 came out at 12.5 µg/mL; in the assay on Sal. typhim 58D011 it was 200 µg/mL; in the assay on Sal. dublin 58U001, 100 µg/mL; in the assay on Staph. aureus 01A005 it was 12.5 µg/mL; in the assay with Strep. zoo 02-H001 it was 6.25 µg/mL; with E. Coli 51A-218 it was 50 µg/mL. Moreover, the Primary in vitro Activity (MIC) in the assay on Sal. cholsu 58B242 turned out to be 50 µg/mL.
As for `O=C(Cc1ccc(O)cc1)OCc1c[n+]([O-])c2ccccc2[n+]1[O-]` [Compound 9], the Primary in vitro Activity (MIC) in the assay on Past. mult 59A004 amounted to 50 µg/mL; with Past. mult 59A006 it was 12.5 µg/mL; in the assay with Strep. pyogen 02C203 it was 3.12 µg/mL; in the assay on E. Coli 51A-266 it was 50 µg/mL; in the assay on Aer. hydro 72B001, 3.12 µg/mL; in the assay on Strep. equi 021001, 6.25 µg/mL. The Primary in vitro Activity (MIC) in the assay with Staph. aureus 01A106 was found to be 12.5 µg/mL; in the assay on Sal. typhim 58D011, 25 µg/mL; in the assay on Sal. dublin 58U001 it was 50 µg/mL; with Staph. aureus 01A005, 6.25 µg/mL; in the assay with Strep. zoo 02-H001 it was 6.25 µg/mL; in the assay with E. Coli 51A-218 it was 25 µg/mL. This compound showed a Primary in vitro Activity (MIC) in the assay on Sal. cholsu 58B242 of 12.5 µg/mL.
As for `CC(=O)c1c(COC(=O)Cc2ccc(O)cc2)[n+]([O-])c2ccccc2[n+]1[O-]` [Compound 3], the Primary in vitro Activity (MIC) in the assay with Past. mult 59A004 was 12.5 µg/mL; in the assay with Past. mult 59A006 it was 6.25 µg/mL; in the assay on Strep. pyogen 02C203, 6.25 µg/mL; in the assay on E. Coli 51A-266, 12.5 µg/mL; in the assay on Aer. hydro 72B001 it was < 1.56 µg/mL; in the assay with Strep. equi 021001, < 1.56 µg/mL. For the same compound, the Primary in vitro Activity (MIC) in the assay on Staph. aureus 01A106 is 1.56 µg/mL; in the assay on Sal. typhim 58D011, 50 µg/mL; in the assay with Sal. dublin 58U001, 50 µg/mL; in the assay on Staph. aureus 01A005 it was 0.78 µg/mL; in the assay on Strep. zoo 02-H001, < 1.56 µg/mL; in the assay on E. Coli 51A-218, 12.5 µg/mL. For the same compound, in the assay with Sal. cholsu 58B242, the Primary in vitro Activity (MIC) was 50 µg/mL.
Consider `CC(=O)c1c(COC(=O)c2ccc(O)cc2)[n+]([O-])c2ccccc2[n+]1[O-]` [Compound 1], for which the Primary in vitro Activity (MIC) is 12.5 µg/mL with Past. mult 59A004; 25 µg/mL with Past. mult 59A006; 3.12 µg/mL in the assay on Strep. pyogen 02C203; 50 µg/mL in the assay with E. Coli 51A-266; 6.25 µg/mL in the assay on Aer. hydro 72B001; < 1.56 µg/mL with Strep. equi 021001. Moreover, the Primary in vitro Activity (MIC) with Staph. aureus 01A106 is 1.56 µg/mL; in the assay with Sal. typhim 58D011, 50 µg/mL; in the assay on Sal. dublin 58U001, 50 µg/mL; in the assay with Staph. aureus 01A005, 1.56 µg/mL; with Strep. zoo 02-H001 it was < 1.56 µg/mL; in the assay on E. Coli 51A-218, 50 µg/mL. Moreover, the Primary in vitro Activity (MIC) in the assay with Sal. cholsu 58B242 worked out at 50 µg/mL.
Turning to `O=C(CCc1ccc(O)cc1)OCc1c(CO)[n+]([O-])c2ccccc2[n+]1[O-]` [Compound 5], the Primary in vitro Activity (MIC) in the assay on Past. mult 59A004 is 50 µg/mL; in the assay on Past. mult 59A006 it was 50 µg/mL; in the assay on Strep. pyogen 02C203 it was 50 µg/mL; in the assay on E. Coli 51A-266 it was 100 µg/mL; with Aer. hydro 72B001, 12.5 µg/mL; with Strep. equi 021001, 12.5 µg/mL. Moreover, the Primary in vitro Activity (MIC) is 25 µg/mL in the assay with Staph. aureus 01A106; 100 µg/mL with Sal. typhim 58D011; 100 µg/mL in the assay with Sal. dublin 58U001; 25 µg/mL in the assay with Staph. aureus 01A005; 100 µg/mL in the assay with Strep. zoo 02-H001; 100 µg/mL in the assay with E. Coli 51A-218. For the same compound, the Primary in vitro Activity (MIC) in the assay with Sal. cholsu 58B242 came out at 100 µg/mL.
Consider `O=C(C=Cc1ccc(O)cc1)OCc1c(CO)[n+]([O-])c2ccccc2[n+]1[O-]` [Compound 7], for which the Primary in vitro Activity (MIC) was determined as 12.5 µg/mL with Past. mult 59A004; 25 µg/mL in the assay with Past. mult 59A006; 12.5 µg/mL in the assay on Strep. pyogen 02C203; 12.5 µg/mL in the assay on E. Coli 51A-266; 1.56 µg/mL in the assay with Aer. hydro 72B001; 0.78 µg/mL in the assay on Strep. equi 021001. For the same compound, the Primary in vitro Activity (MIC) with Staph. aureus 01A106 was found to be 6.25 µg/mL; with Sal. typhim 58D011, 12.5 µg/mL; in the assay with Sal. dublin 58U001, 25 µg/mL; in the assay on Staph. aureus 01A005, 6.25 µg/mL; in the assay on Strep. zoo 02-H001, 50 µg/mL; in the assay on E. Coli 51A-218, 12.5 µg/mL. Moreover, the Primary in vitro Activity (MIC) in the assay with Sal. cholsu 58B242 is 25 µg/mL.
Regarding `O=C(OCc1c(CO)[n+]([O-])c2ccccc2[n+]1[O-])c1ccc(O)cc1` [Compound 4], the Primary in vitro Activity (MIC) in the assay on Past. mult 59A004 was 100 µg/mL; with Past. mult 59A006, 12.5 µg/mL; in the assay on Strep. pyogen 02C203, < 1.56 µg/mL; in the assay on E. Coli 51A-266 it was 25 µg/mL; in the assay on Aer. hydro 72B001 it was 12.5 µg/mL; in the assay on Strep. equi 021001 it was < 1.56 µg/mL. The Primary in vitro Activity (MIC) with Staph. aureus 01A106 was found to be 3.2 µg/mL; in the assay on Sal. typhim 58D011 it was 25 µg/mL; in the assay on Sal. dublin 58U001, 25 µg/mL; with Staph. aureus 01A005 it was 3.2 µg/mL; in the assay with Strep. zoo 02-H001, 100 µg/mL; in the assay on E. Coli 51A-218, 50 µg/mL. The Primary in vitro Activity (MIC) in the assay with Sal. cholsu 58B242 came to 50 µg/mL.
Take `CC(=O)c1c(COC(=O)c2cccc(O)c2)[n+]([O-])c2ccccc2[n+]1[O-]` [Compound 2]: the Primary in vitro Activity (MIC) in the assay on Past. mult 59A004 is 12.5 µg/mL; in the assay on Past. mult 59A006, 25 µg/mL; in the assay with Strep. pyogen 02C203 it was 25 µg/mL; in the assay on E. Coli 51A-266, < 100 µg/mL; in the assay on Aer. hydro 72B001 it was 3.2 µg/mL; in the assay on Strep. equi 021001, < 1.56 µg/mL. Further, the Primary in vitro Activity (MIC) was 6.25 µg/mL in the assay on Staph. aureus 01A106; < 100 µg/mL in the assay with Sal. typhim 58D011; < 100 µg/mL in the assay with Sal. dublin 58U001; 12.5 µg/mL in the assay on Staph. aureus 01A005; < 100 µg/mL with Strep. zoo 02-H001; 50 µg/mL with E. Coli 51A-218. Besides, the Primary in vitro Activity (MIC) with Sal. cholsu 58B242 is < 100 µg/mL.
For `O=C(Cc1ccc(O)cc1)OCc1c(CO)[n+]([O-])c2ccccc2[n+]1[O-]` [Compound 6], the Primary in vitro Activity (MIC) is 12.5 µg/mL in the assay on Past. mult 59A004; 25 µg/mL in the assay with Past. mult 59A006; < 1.56 µg/mL in the assay on Strep. pyogen 02C203; 12.5 µg/mL in the assay with E. Coli 51A-266; 1.56 µg/mL with Aer. hydro 72B001; < 1.56 µg/mL in the assay with Strep. equi 021001. Further, the Primary in vitro Activity (MIC) in the assay with Staph. aureus 01A106 amounted to 1.56 µg/mL; with Sal. typhim 58D011, 25 µg/mL; with Sal. dublin 58U001, 25 µg/mL; in the assay on Staph. aureus 01A005 it was 1.56 µg/mL; with Strep. zoo 02-H001, 12.5 µg/mL; in the assay on E. Coli 51A-218, 12.5 µg/mL. In the assay on Sal. cholsu 58B242, the Primary in vitro Activity (MIC) stood at 25 µg/mL.
